Each structure is given as a SMILES string. Activity calls are given as the source filed them. No cut-off for these calls is given here.

This passage reports Activity results from ChEMBL document CHEMBL6114956, “Design, synthesis, and evaluation of the pharmacological activity of novel NMDA receptor antagonists based on the germacrone scaffold” (2025).

In assay [1] the test system is PC-12. In words: Neuroprotective activity against NMDA-induced cell injury in rat PC12 cells at 0.05 uM incubated for 12 hrs by MTT assay relative to control. Type of assay: functional. (In general: Tetrazolium dyes change colour on reduction, which living cells bring about.)
Assay [2] relates to PC-12. As to the kind of experiment: Neuroprotective activity against NMDA-induced cell injury in rat PC12 cells at 0.5 uM incubated for 12 hrs by MTT assay relative to control. Type of assay: functional.
The test system of assay [3] is PC-12. As to the kind of experiment: Neuroprotective activity against NMDA-induced cell injury in rat PC12 cells at 5 uM incubated for 12 hrs by MTT assay relative to control. The format is functional.
The target in assay [4] is Glutamate NMDA receptor (Rattus norvegicus) (UniProt P35439+Q00959+Q00960+Q00961+Q62645+Q8VHN2+Q9R1M7). As to the kind of experiment: Antagonist activity at NMDAR in rat PC12 cells assessed as inhibition of NMDA-induced Ca2+ influx at 0.05 uM preincubated for 6 hrs followed by NMDA addition measured for 1 to 3 mins by Fluo-4 AM staining based analysis. The format is cell-based. Particulars: filed as antagonist, time 361-363 min.

As to `CC(C)=C1C/C=C(/C)CC/C=C(\C)CC1OC(=O)[C@@H](C)NC(=O)c1ccc(F)cc1` (stereo not given in full), the figures for the Activity in assay [1], in assay [2] and in assay [3] were 13.93%, 9.33% and 12.32%, respectively.
Take `CC(C)=C1C/C=C(/C)CC/C=C(\C)CC1OC(=O)[C@@H](C)NC(=O)c1ccc(Cl)cc1` (stereo not given in full): the Activity in assay [1] turned out to be 15.03%; in assay [2], 16.58%; in assay [3], 5.32%.
For `CC(C)=C1C/C=C(/C)CC/C=C(\C)CC1OC(=O)[C@H](C)NC(=O)c1ccc(Cl)cc1` (stereo not given in full), in that order: 14.06%, 15.27% and 11.25%.
`CC(C)=C1C/C=C(/C)CC/C=C(\C)CC1OC(=O)[C@H](C)NC(=O)c1ccc(O)cc1` (stereo not given in full): the Activity in assay [1] was 12.86%; in assay [2] it was 10.31%; in assay [3] it was -2.01%.
For `CC(C)=C1C/C=C(/C)CC/C=C(\C)CC1OC(=O)[C@@H]1CCC2=Nc3ccc(Br)cc3CN21` (stereo not given in full), in that order: 23.62%, 28.02% and 29.37%.
For `CC(C)=C1C/C=C(/C)CC/C=C(\C)CC1OC(=O)[C@@H](C)NC(=O)c1ccc(O)cc1` (stereo not given in full), in that order: 15.74%, 15.08% and 11.03%.
As for `CC(C)=C1C/C=C(/C)CC/C=C(\C)CC1=O`, the Activity is on record as 14.66% in assay [1], 2.94% in assay [2] and -4.79% in assay [3]. Also, the outcome in assay [4] was Active.
For `CC(C)=C1C/C=C(/C)CC/C=C(\C)CC1OC(=O)[C@@H]1CCC2=Nc3ccccc3CN21` (stereo not given in full), in that order: 29.63%, 26.17%, 24.42% and “Active; Compound Activity Was Superior To Ifenprodil”.
For `CC(C)=C1C/C=C(/C)CC/C=C(\C)CC1OC(=O)[C@H](C)NC(=O)c1ccc(F)cc1` (stereo not given in full), the values for the Activity in assay [1], in assay [2] and in assay [3] were 15.35%, 12.7% and 16.47%, respectively.
In the case of `CC(C)=C1C/C=C(/C)CC/C=C(\C)CC1OC(=O)[C@@H]1CCC2=Nc3ccc(Cl)cc3CN21` (stereo not given in full), the Activity in assay [1] stood at 28.73%; in assay [2] it was 28.87%; in assay [3], 25.35%.
On to `CC(C(O)c1ccc(O)cc1)N1CCC(Cc2ccccc2)CC1` (stereo not given) [IFENPRODIL], for which the Activity stood at 18.31% in assay [1], 22.57% in assay [2] and 31.16% in assay [3].
